The values below come from ChEMBL document CHEMBL5715954, “Silencing c-Myc translation as a therapeutic strategy through targeting PI3Kδ and CK1ε in hematological malignancies” (Blood, 2017).

Molecules are shown by their SMILES.

What all share (set-up): scale not given: the % may be the effect or the level left
The target in test [1] is CDK18/Cyclin Y (Homo sapiens) (UniProt Q07002+Q8ND76). Put plainly: Inhibition of human CDK18/cyclin Y assessed as enzyme activity at 1 uM using RB Protein as substrate preincubated for 20 mins followed by [gamma-33P]-ATP addition and measured after 120 mins by radiometric Hot-SpotSM Kinase assay relative to control. Type of test: protein-complex assay.
Test [2] concerns the target Ribosomal protein S6 kinase beta-1 (Homo sapiens) (UniProt P23443). Briefly: Inhibition of human p70S6K assessed as enzyme activity at 1 uM using KKRNRTLTK as substrate preincubated for 20 mins followed by [gamma-33P]-ATP addition and measured after 120 mins by radiometric Hot-SpotSM Kinase assay relative to control.
Test [3] concerns the target High affinity nerve growth factor receptor (Homo sapiens) (UniProt P04629). Put plainly: Inhibition of human TRKA assessed as enzyme activity at 1 uM using poly[Glu:Tyr] (4:1) as substrate preincubated for 20 mins followed by [gamma-33P]-ATP addition and measured after 120 mins by radiometric Hot-SpotSM Kinase assay relative to control.
In test [4] the target is Calcium/calmodulin-dependent protein kinase type 1 (Homo sapiens) (UniProt Q14012). Briefly: Inhibition of human CAMK1a assessed as enzyme activity at 1 uM using KKALRRQETVDAL as substrate preincubated for 20 mins followed by [gamma-33P]-ATP addition and measured after 120 mins by radiometric Hot-SpotSM Kinase assay relative to control.
For test [5], the target named is Serine/threonine-protein kinase N1 (Homo sapiens) (UniProt Q16512). Briefly: Inhibition of human PKN1 assessed as enzyme activity at 1 uM using KKLNRTLSVA as substrate preincubated for 20 mins followed by [gamma-33P]-ATP addition and measured after 120 mins by radiometric Hot-SpotSM Kinase assay relative to control.
Sequence of Serine/threonine-protein kinase N1 (Homo sapiens) (Q16512 2-942 limits assumed): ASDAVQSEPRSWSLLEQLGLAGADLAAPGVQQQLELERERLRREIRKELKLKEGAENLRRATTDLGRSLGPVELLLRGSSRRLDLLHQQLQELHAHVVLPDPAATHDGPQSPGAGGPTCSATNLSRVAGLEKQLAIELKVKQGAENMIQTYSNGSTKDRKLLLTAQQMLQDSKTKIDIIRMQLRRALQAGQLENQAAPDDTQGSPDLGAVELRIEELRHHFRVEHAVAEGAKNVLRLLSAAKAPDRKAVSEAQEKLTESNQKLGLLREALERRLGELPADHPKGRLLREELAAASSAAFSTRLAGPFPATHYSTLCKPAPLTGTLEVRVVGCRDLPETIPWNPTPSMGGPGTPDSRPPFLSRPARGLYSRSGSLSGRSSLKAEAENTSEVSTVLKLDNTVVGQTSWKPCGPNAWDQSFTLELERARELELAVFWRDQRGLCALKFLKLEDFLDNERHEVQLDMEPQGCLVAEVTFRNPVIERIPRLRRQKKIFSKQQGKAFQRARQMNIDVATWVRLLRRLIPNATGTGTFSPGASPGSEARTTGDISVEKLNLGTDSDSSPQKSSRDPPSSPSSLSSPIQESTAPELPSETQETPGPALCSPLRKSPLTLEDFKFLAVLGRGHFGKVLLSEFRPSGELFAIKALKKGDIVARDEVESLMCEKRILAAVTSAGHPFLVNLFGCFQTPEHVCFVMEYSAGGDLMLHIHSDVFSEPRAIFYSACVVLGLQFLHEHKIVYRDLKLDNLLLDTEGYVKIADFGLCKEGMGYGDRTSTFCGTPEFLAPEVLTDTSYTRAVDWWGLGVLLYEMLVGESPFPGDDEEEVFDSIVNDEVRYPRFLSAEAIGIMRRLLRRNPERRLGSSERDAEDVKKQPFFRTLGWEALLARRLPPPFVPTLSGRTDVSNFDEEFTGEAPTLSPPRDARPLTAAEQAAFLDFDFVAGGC
The target of test [6] is T1, Dual specificity mitogen-activated protein kinase kinase 4 (Homo sapiens) (UniProt P45985).
T1 sequence (whole entry): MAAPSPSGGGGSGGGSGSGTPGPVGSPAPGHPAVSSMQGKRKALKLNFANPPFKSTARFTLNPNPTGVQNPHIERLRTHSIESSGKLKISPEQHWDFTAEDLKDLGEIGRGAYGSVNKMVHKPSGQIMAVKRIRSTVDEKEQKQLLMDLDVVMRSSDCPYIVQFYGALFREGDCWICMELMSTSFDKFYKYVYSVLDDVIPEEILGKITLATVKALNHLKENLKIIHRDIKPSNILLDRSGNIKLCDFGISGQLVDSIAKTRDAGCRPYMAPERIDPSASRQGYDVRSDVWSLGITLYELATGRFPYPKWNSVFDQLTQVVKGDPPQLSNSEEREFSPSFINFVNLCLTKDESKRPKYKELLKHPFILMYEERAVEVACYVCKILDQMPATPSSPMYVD
Briefly: Inhibition of human MKK4 assessed as enzyme activity at 1 uM using JNK1 (K55M) as substrate preincubated for 20 mins followed by [gamma-33P]-ATP addition and measured after 120 mins by radiometric Hot-SpotSM Kinase assay relative to control.

Test [7] concerns the target T2, Serine/threonine-protein kinase PLK4 (Homo sapiens) (UniProt O00444).
T2 sequence (whole entry): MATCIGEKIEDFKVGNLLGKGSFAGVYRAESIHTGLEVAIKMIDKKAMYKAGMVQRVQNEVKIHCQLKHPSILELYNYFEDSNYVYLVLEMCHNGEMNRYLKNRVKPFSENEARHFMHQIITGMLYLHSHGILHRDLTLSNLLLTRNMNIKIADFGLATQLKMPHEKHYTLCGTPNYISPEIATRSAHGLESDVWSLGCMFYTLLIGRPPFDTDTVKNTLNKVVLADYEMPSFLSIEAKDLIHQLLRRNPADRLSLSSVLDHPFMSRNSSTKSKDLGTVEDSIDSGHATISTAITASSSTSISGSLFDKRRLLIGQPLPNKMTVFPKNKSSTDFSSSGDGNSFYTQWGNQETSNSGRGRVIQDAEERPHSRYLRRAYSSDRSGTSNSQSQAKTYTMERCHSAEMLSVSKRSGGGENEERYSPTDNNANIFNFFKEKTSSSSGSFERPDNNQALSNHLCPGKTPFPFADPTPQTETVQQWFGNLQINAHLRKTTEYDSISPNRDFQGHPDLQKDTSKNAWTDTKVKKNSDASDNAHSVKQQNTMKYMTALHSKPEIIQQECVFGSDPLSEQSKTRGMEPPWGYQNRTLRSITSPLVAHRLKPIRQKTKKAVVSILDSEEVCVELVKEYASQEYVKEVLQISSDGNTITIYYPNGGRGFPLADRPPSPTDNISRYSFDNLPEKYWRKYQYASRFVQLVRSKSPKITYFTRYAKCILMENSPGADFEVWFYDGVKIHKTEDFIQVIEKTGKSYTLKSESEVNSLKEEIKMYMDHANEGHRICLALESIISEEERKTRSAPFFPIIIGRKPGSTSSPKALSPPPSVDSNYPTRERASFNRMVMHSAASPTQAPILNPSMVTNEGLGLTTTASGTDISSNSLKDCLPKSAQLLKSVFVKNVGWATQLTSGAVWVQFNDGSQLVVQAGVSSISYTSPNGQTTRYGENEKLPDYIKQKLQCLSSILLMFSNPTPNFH
Briefly: Inhibition of human PLK4 assessed as enzyme activity at 1 uM using casein as substrate preincubated for 20 mins followed by [gamma-33P]-ATP addition and measured after 120 mins by radiometric Hot-SpotSM Kinase assay relative to control.

Test [8] has as its target MAP kinase-interacting serine/threonine-protein kinase 1 (Homo sapiens) (UniProt Q9BUB5). Briefly: Inhibition of human MNK1 assessed as enzyme activity at 1 uM using myelin basic protein as substrate preincubated for 20 mins followed by [gamma-33P]-ATP addition and measured after 120 mins by radiometric Hot-SpotSM Kinase assay relative to control.
Test [9] concerns the target CDK3/Cyclin E (Homo sapiens) (UniProt P24864+Q00526). Briefly: Inhibition of human CDK3/cyclin E assessed as enzyme activity at 1 uM using RB Protein as substrate preincubated for 20 mins followed by [gamma-33P]-ATP addition and measured after 120 mins by radiometric Hot-SpotSM Kinase assay relative to control. Type of test: protein-complex assay.
Test [10] concerns the target Cyclin-dependent kinase 1/cyclin B1 (Homo sapiens) (UniProt P06493+P14635). Put plainly: Inhibition of human CDK1/cyclin B assessed as enzyme activity at 1 uM using RB Protein as substrate preincubated for 20 mins followed by [gamma-33P]-ATP addition and measured after 120 mins by radiometric Hot-SpotSM Kinase assay relative to control. Type of test: protein-complex assay.

Test [11] has as its target Serine/threonine-protein kinase SIK1 (Homo sapiens) (UniProt P57059). Briefly: Inhibition of human SIK1 assessed as enzyme activity at 1 uM using AMARAASAAALARRR as substrate preincubated for 20 mins followed by [gamma-33P]-ATP addition and measured after 120 mins by radiometric Hot-SpotSM Kinase assay relative to control.

Sequence of MAP kinase-interacting serine/threonine-protein kinase 1 (Homo sapiens) (Q9BUB5 whole entry, looked up): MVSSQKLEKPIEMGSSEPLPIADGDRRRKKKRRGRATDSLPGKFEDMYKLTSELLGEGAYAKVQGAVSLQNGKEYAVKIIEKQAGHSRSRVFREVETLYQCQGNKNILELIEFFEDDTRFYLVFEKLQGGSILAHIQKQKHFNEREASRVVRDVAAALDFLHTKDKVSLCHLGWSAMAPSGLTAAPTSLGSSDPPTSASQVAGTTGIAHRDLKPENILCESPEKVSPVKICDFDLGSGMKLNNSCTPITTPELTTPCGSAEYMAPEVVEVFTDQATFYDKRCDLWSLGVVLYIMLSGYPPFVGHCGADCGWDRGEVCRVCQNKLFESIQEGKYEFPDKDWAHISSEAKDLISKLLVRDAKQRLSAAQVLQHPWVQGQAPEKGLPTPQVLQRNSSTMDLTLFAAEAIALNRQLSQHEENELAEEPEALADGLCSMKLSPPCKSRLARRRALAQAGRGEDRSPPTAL
Sequence of Cyclin-dependent kinase 1/cyclin B1 (Homo sapiens) (P06493 whole entry, looked up): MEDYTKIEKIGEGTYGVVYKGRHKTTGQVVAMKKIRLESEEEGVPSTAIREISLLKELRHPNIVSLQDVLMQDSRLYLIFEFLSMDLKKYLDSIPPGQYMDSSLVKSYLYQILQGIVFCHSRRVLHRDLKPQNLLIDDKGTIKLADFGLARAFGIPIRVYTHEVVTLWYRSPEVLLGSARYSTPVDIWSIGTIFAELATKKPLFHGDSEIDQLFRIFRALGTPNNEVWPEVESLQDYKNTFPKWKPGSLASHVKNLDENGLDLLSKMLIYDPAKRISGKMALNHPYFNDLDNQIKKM
Sequence of Cyclin-dependent kinase 1/cyclin B1 (Homo sapiens) (P14635 whole entry, looked up): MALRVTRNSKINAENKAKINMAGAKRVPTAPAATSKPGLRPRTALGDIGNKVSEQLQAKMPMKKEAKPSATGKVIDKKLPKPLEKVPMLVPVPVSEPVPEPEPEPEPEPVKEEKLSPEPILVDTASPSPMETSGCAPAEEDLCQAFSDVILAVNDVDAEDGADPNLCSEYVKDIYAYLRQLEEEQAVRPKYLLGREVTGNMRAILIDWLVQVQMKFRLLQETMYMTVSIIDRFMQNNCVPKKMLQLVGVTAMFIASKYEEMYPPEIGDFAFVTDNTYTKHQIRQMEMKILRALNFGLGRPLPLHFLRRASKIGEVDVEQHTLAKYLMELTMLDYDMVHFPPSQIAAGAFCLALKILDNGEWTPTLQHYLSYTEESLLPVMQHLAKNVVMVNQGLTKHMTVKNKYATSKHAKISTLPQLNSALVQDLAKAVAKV
Sequence of High affinity nerve growth factor receptor (Homo sapiens) (P04629 33-796 limits assumed): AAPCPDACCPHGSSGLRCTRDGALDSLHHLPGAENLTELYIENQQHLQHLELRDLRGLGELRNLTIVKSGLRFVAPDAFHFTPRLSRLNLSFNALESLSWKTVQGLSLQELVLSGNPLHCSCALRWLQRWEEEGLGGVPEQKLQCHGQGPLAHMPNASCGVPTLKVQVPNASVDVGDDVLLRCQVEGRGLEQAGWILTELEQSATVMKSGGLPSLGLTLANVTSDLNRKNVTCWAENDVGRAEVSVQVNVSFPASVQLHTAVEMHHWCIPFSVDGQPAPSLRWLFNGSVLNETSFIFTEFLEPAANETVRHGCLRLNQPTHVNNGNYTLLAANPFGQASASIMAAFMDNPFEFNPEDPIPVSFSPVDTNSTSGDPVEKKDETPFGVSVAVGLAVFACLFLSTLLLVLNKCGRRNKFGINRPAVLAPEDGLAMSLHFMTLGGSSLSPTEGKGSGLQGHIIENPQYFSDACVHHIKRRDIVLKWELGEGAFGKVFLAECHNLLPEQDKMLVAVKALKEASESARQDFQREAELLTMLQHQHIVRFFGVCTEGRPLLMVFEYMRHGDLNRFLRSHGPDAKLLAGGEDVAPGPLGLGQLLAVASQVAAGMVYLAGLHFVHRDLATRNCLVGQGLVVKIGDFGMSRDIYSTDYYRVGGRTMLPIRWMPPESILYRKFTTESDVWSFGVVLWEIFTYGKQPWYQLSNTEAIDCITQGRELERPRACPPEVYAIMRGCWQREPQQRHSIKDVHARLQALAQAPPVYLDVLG
Sequence of Ribosomal protein S6 kinase beta-1 (Homo sapiens) (P23443 whole entry, looked up): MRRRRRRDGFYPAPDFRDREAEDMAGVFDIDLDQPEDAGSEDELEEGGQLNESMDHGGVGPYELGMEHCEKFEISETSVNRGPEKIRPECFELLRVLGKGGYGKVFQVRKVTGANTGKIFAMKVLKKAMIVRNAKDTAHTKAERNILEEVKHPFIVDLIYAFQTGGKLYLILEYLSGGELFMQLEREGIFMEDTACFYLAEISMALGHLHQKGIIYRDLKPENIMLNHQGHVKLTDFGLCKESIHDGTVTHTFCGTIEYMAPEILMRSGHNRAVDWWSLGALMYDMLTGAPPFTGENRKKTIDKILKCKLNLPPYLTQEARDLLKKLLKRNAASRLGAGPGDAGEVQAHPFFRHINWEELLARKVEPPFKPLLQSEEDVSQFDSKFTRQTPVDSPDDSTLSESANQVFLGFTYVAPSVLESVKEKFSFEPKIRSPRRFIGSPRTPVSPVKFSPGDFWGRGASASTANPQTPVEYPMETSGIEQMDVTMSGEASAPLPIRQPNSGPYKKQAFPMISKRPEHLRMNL
Sequence of Serine/threonine-protein kinase SIK1 (Homo sapiens) (P57059 whole entry): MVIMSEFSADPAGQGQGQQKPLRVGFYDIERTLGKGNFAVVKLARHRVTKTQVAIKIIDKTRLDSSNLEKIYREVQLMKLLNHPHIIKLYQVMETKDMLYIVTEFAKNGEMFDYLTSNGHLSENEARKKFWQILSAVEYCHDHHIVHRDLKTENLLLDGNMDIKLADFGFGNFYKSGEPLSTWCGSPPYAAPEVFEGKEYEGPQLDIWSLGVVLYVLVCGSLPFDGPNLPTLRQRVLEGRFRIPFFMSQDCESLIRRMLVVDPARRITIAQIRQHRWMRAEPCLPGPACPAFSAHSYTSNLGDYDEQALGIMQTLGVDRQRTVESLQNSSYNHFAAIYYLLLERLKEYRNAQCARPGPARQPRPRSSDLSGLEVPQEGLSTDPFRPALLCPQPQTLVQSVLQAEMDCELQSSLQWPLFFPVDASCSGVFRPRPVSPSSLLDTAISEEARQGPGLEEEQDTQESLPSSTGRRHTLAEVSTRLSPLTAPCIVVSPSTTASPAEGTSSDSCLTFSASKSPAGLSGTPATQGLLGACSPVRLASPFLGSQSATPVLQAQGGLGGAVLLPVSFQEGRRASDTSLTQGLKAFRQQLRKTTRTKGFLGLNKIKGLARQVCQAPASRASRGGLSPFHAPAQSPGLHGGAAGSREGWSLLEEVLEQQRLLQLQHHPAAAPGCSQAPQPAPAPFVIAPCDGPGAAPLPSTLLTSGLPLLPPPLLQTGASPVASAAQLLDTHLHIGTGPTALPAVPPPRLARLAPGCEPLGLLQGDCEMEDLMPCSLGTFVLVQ
Sequence of CDK3/Cyclin E (Homo sapiens) (P24864 whole entry, looked up): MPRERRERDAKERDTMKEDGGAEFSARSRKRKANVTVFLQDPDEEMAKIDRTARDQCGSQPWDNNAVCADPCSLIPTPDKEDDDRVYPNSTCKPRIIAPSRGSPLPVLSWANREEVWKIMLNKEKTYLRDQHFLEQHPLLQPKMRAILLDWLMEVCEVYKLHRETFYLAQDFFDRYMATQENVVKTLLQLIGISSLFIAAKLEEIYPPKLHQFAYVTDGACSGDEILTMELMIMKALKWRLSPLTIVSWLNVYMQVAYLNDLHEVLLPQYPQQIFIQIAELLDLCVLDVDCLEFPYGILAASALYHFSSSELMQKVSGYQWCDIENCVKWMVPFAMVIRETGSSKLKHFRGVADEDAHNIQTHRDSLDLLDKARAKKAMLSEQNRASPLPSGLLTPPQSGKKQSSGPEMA
Sequence of CDK3/Cyclin E (Homo sapiens) (Q00526 whole entry, looked up): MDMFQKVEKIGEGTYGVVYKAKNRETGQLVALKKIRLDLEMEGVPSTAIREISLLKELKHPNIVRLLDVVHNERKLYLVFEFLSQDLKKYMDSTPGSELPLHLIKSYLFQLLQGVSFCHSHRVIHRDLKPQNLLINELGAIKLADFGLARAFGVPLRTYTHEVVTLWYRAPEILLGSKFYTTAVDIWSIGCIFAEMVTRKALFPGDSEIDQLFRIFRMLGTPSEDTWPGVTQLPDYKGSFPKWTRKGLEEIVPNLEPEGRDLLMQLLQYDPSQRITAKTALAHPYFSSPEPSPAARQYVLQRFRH

Turning to `C[C@H](Nc1ncnc2nc[nH]c12)c1cc2cccc(Cl)c2c(=O)n1-c1ccccc1`, the Activity in test [1] was 100%; in test [2] it was 97.2%; in test [3] it was 87.3%; in [4] it was 103%; in test [5], 84%; in test [6], 96.9%. Also, the Activity in test [7] turned out to be 91%; in test [8], 93.5%; in [9], 88%; in test [10], 97%; in [11] it was 95.7%.

Regarding `CC[C@H](Nc1ncnc2[nH]cnc12)c1nc2cccc(F)c2c(=O)n1-c1ccccc1`, the Activity is 85.7% in test [1]; 96.5% in [2]; 91% in test [3]; 96.8% in [4]; 90.5% in test [5]; 99.9% in [6]. Besides, the Activity in test [7] was found to be 99.9%; in [8], 96.3%; in [9] it was 86.8%; in test [10] it was 102%; in test [11], 95.5%.

In the case of `CC(C)Oc1ccc(-c2nn([C@@H](C)c3oc4ccc(F)cc4c(=O)c3-c3cccc(F)c3)c3ncnc(N)c23)cc1F` [UMBRALISIB], the Activity worked out at 94.6% in test [1]; 97.9% in [2]; 89% in [3]; 99.6% in test [4]; 92.8% in [5]; 98.7% in test [6]. Further, the Activity was determined as 102% in test [7]; 92% in test [8]; 84.3% in test [9]; 98.9% in [10]; 98.2% in test [11].
